For data set [1], the system named is female AA rats. Description: Reduction of alcohol consumption and alcohol preference in alcohol-preferring AA rats (free choice between water and 10% v/v ethanol). Type of data set: in vivo, rat. The note with it: for Alcohol solution consumed: 10% aqueous ethanol. The source says: The “AA” strain of rats, bred in Finland, has a genetically determined preference for alcohol, which means that even without pre-treatment with alcohol the animals, when given free choice, prefer alcohol-containing liquids, to alcohol-free liquids to satisfy their fluid requirement. This strain has therefore been used in numerous studies on the pharmacology of alcohol and is extremely well characterized.
Female AA rats (tested for alcohol preference and made available by the Public Health Institute in Helsinki) were housed individually and had free access to standard feed (Altromin 1324 granulate), the ambient temperature was 24±1° C. and the light-dark change was 12/12 hours (the dark period lasting from 6 p.m. to 6 a.m. Each cage contained two identical drinking bottles, of which one contained pure water and the other contained aqueous ethanol (10% v/v). During the 12-hour dark period the animals had access to the drinking bottles and during this period had free choice between the two solutions. To prevent the animals from becoming accustomed to a particular position in the cage, the positions of the bottles were changed daily. Prior to start of the tests, the animals were granted an adaptation phase until a largely constant alcohol and water consumption was ensured.
Deoxypeganine hydrochloride (called “DOP” in the following) was obtained from the Institute for the Pharmacology of Plants (Taschkent, Usbekistan) and supplied by the firm of LTS Lohmann Therapie-Systeme (Andemach, Germany) after checking for identity and purity. Mecamylamine was obtained as a commercial preparation from Sigma-Aldrich GmbH (Munich).
Treatment of the test animals always took place immediately prior to the start of the dark period. Mecamylamine was dissolved in 0.9% aqueous saline and a volume of 5 ml/kg body weight was administered by intraperitoneal injection. DOP was applied as an aqueous solution with a volume of 10 ml/kg by a probang.
In the case of combination treatments, this administration took place within a period of less than 10 minutes. Two treatment-free days were always interposed prior to and following the treatment days.
The parameters recorded were consumption of alcohol, consumption of water and consumption of feed (each in grams), as well as alcohol preference, calculated using the formula: [formula]
The target parameters were in each case traced during the 12 hours of the dark period following treatment, intermediate results were recorded after the first 4 hours and final results after 12 hours. Statistical evaluation of the test data was performed using the t-test for dependent values. The results in respect of consumption of alcohol and alcohol preference are summarized in FIGS. 1 and 2 as well as in Tables 1 and 2.

Data set [2] deals with extracellular dopamine concentration in the nucleus accumbens. The following applies: nucleus accumbens of the rat; baseline dopamine release not impaired; cited from earlier work.
Data set [3] relates to healthy probands. The note with it: administered two hours prior to consumption of alcoholic beverages; cited from earlier work.
The conditions of data set [4]: cited from earlier work.
For data set [5], the target named is T1, monoamine oxidase A (Homo sapiens, UniProt P21397).
T1 sequence (P21397 1-527): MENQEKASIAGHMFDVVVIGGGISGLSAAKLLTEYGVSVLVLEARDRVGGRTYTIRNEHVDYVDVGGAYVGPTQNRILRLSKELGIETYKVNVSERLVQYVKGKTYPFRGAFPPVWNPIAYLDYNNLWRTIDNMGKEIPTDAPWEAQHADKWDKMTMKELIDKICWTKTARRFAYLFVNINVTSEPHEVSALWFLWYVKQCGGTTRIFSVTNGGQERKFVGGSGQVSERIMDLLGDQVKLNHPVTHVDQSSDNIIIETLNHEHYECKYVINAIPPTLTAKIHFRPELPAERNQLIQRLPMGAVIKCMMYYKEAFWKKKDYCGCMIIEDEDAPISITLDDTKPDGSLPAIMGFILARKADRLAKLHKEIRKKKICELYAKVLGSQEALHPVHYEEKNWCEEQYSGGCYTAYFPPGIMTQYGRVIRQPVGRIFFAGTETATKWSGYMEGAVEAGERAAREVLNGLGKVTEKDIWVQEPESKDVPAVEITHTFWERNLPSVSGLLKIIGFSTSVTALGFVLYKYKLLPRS
The note with it: cited from earlier work.

Data set [6] relates to neuronal nicotinic acetylcholine receptors (NACHRs). The note with it: in pharmacologically relevant concentrations; cited from earlier work.
Where [7] appears, read: Trial 2, Mec 1 mg/kg i.p., After 4 hours.
Where [8] appears, read: Trial 2, Mec 1 mg/kg i.p., After 8 hours (subsequent eight hours).
Where [9] appears, read: Trial 2, Mec 1 mg/kg i.p., Total (12 hours).
Setting [10] is: Trial 1, DOP 20 mg/kg p.o., After 4 hours.
[11] abbreviates: Trial 1, DOP 20 mg/kg p.o., After 8 hours (subsequent eight hours).
The mark [12] stands for this setting: Trial 1, DOP 20 mg/kg p.o., Total (12 hours).
Where [13] appears, read: Trial 2, DOP 20 mg/kg p.o., After 4 hours.
Setting [14] is: Trial 2, DOP 20 mg/kg p.o., After 8 hours (subsequent eight hours).
[15] abbreviates: Trial 2, DOP 20 mg/kg p.o., Total (12 hours).

Consider `CNC1(C)C2CCC(C2)C1(C)C` (racemic) [Mec, reference compound], for which the results for the Alcohol solution consumed in data set [1] (setting [7]), in data set [1] (setting [8]) and in data set [1] (setting [9]) were 5.4 ± 0.5 gram, 10.1 ± 0.4 gram and 15.5 ± 0.5 gram, respectively. In addition, the “Effect on consumption of alcohol and alcohol preference” value was “no effect” in data set [1] (Mecamylamine 1 mg/kg i.p. administered singly); “potentiated the effect of DOP on both parameters” in data set [1] (Mecamylamine 1 mg/kg i.p. combined with DOP 20 mg/kg p.o.); “without effect with regard to alcohol” in data set [1] (mecamylamine 0.5 mg/kg i.p. combined with DOP 20 mg/kg p.o.); “without effect with regard to alcohol” in data set [1] (mecamylamine 0.75 mg/kg i.p. combined with DOP 20 mg/kg p.o.); “potentiating effect could not be increased further” in data set [1] (mecamylamine dosage increased to 1.5 mg/kg i.p., combined with DOP 20 mg/kg p.o.). For the same compound, the Alcohol preference in data set [1] (setting [7]) is listed as 85.3 ± 4.2%; in data set [1] (setting [8]) it was 87.8 ± 3.1%; in data set [1] (setting [9]), 86.3 ± 2.6%. Also, the “Blockade of alcohol-induced increase in extracellular dopamine concentration” value in data set [2] is “completely blocks”. Besides, the “Effect on the centrally stimulating psychotropic effect of alcohol” value in data set [3] is recorded as “reduced the centrally stimulating psychotropic effect”. Moreover, the Oral bioavailability in data set [4] is ~100%.
For `c1ccc2c(c1)CN1CCCC1=N2` [DOP, 1,2,3,9-tetrahydropyrrollo[2,1-b]chinazoline], the Alcohol solution consumed was 5.2 ± 0.6 gram in data set [1] (setting [10]); 10.2 ± 0.6 gram in data set [1] (setting [11]); 15.4 ± 1.1 gram in data set [1] (setting [12]); 5.8 ± 0.6 gram in data set [1] (setting [13]); 10.7 ± 0.5 gram in data set [1] (setting [14]); 16.6 ± 0.6 gram in data set [1] (setting [15]). In data set [1] (DOP 20 mg/kg p.o., preferably within the first 4 hours after administration), the “Effect on consumption of alcohol and alcohol preference” value was “lowered the consumption of alcohol and alcohol preference”. For the same compound, the Alcohol preference in data set [1] (setting [10]) came to 57.4 ± 7.1%; in data set [1] (setting [11]) it was 82.0 ± 4.0%; in data set [1] (setting [12]), 70.5 ± 4.5%; in data set [1] (setting [13]) it was 55.6 ± 7.6%; in data set [1] (setting [14]), 88.0 ± 2.1%; in data set [1] (setting [15]) it was 72.7 ± 4.3%. Also, the “Inhibition of monoamine oxidase A” value in data set [5] is recorded as “inhibits monoamine oxidase A”. Besides, the “Binding to NACHRs” value in data set [6] was “does not bind to NACHRs”.
Turning to `O=C1CC[C@@]2(O)[C@H]3Cc4ccc(O)c5c4[C@@]2(CCN3CC2CC2)[C@H]1O5` [naltrexone], the Oral bioavailability result in data set [4] was “approx. 5%”.
